Measurements as given in patent US11358948B2, “CRBN ligands and uses thereof” (Kymera Therapeutics, Inc., priority 2017, dated 2022).
Structures can show the parent of a compound that is named as a salt.

Tests used:
[1] = target: His-tagged CRBN-DDB1 complex (Homo sapiens (Human), UniProt Q96SW2); assay: Time-Resolved Fluorescence Resonance Energy Transfer (TR-FRET) assay, displacement of Cy5-labeled thalidomide; format: binding; conditions: read-out: CRBN HTRF IC50
Description: The mixture were incubated at room temperature for 1 hour. […] Quantitative loss of FRET efficiency as a function of compound concentrations was fitted by a four-parameter Logistic Function using GraphPad Prism 7.0 and the IC50 values were reported for each compound.

[2] = target: Untagged CRBN-DDB1 complex (Homo sapiens (Human), UniProt Q96SW2); assay: Fluorescence Polarization (FP) assay, displacement of Cy5-labeled thalidomide; format: binding; conditions: untagged CRBN-DDB1 50 nM, Cy5-labeled thalidomide 20 nM, 10 min room temperature
Sequence of Untagged CRBN-DDB1 complex (Q96SW2 whole entry): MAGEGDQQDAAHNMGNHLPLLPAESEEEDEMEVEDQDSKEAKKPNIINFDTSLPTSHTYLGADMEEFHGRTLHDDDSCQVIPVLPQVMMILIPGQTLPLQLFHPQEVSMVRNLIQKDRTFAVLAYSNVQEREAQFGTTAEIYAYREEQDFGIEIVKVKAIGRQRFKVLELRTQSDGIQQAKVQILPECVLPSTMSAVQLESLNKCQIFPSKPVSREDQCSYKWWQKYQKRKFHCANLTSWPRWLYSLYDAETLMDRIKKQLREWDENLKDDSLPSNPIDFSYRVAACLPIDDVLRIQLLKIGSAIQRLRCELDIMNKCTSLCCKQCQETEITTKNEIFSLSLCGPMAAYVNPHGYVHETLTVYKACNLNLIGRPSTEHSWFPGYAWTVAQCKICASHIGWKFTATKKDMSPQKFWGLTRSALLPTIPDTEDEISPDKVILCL
Sequence of Untagged CRBN-DDB1 complex (Q16531 whole entry partner): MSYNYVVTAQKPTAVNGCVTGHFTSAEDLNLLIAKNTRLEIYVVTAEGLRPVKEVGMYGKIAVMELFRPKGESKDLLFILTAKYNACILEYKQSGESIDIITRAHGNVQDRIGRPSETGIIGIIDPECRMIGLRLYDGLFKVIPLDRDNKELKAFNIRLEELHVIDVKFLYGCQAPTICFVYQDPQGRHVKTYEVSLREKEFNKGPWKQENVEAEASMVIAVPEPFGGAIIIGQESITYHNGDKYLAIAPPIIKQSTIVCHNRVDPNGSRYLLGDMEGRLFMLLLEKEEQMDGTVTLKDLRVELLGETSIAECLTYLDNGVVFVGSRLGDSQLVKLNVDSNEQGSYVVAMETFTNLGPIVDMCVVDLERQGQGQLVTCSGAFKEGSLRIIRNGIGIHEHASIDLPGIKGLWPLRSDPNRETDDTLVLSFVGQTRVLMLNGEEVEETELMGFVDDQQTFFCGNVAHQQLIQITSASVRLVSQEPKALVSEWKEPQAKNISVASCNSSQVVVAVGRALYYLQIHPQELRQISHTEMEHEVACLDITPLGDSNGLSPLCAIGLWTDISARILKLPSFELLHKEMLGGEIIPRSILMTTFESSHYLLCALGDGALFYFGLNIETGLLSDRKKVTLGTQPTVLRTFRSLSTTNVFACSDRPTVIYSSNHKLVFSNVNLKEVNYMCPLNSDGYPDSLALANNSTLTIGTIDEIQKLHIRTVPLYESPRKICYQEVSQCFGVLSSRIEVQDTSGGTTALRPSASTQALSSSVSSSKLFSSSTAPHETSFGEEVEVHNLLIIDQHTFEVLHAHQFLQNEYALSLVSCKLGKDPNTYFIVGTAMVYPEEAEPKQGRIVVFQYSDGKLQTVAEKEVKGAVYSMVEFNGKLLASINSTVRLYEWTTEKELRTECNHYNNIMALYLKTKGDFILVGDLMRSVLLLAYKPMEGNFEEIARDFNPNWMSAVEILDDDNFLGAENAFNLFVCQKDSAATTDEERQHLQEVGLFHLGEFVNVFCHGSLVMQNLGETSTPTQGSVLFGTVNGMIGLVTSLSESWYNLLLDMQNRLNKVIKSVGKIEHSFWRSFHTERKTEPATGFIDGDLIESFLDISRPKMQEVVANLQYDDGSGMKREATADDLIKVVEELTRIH
Description: The final solution contained 50 mM HEPES, 200 mM NaCl and 2 mM DTT, pH 7.5. The mixtures were incubated at room temperature for 10 min. The FP signals were recorded on an EnVision plate reader (Perkin Elmer) using the following settings: Excitation Light (%): 100; Measurement Height: 12; G-Factor: 1; Detector Gain 1: 500; Detector Gain 2: 500; Flash Number: 100. Dose-dependent loss of FP signals was fitted by four-parameter Logistic Function using GraphPad Prism 7.0 and the IC50 values were reported for each compound.

Sequence of His-tagged CRBN-DDB1 complex (Q96SW2 whole entry): as the sequence (Q96SW2 whole entry) above
Sequence of His-tagged CRBN-DDB1 complex (Q16531 whole entry partner): as the sequence (Q16531 whole entry partner) above

SMILES | IC50 [1] [nM] | IC50 [2] [nM]
CC(=O)NCc1ccc2c(c1)n(C)c(=O)n2C1CCC(=O)NC1=O (centres unmarked) [Compound I-66, N-((1-(2,6-dioxopiperidin-3-yl)-3-methyl-2-oxo-2,3-dihydro-1H-benzo[d]imidazol-5-yl)methyl)acetamide] | < 1000 | –
CC(=O)Nc1ccc2c(c1)n(C)c(=O)n2C1CCC(=O)NC1=O (centres unmarked) [Compound I-62, N-(1-(2,6-dioxopiperidin-3-yl)-3-methyl-2-oxo-2,3-dihydro-1H-benzo[d]imidazol-5-yl)acetamide] | < 1000 | –
Cn1c(=O)n(C2CCC(=O)NC2=O)c2ccc(CCCOCCOCCOCCOCCNC(=O)OC(C)(C)C)cc21 (centres unmarked) [Compound I-85, tert-butyl (15-(1-(2,6-dioxopiperidin-3-yl)-3-methyl-2-oxo-2,3-dihydro-1H-benzo[d]imidazol-5-yl)-3,6,9,12-tetraoxapentadecyl)carbamate] | < 1000 | –
CNC(=O)c1ccc2c(c1)n(C)c(=O)n2C1CCC(=O)NC1=O (centres unmarked) [Compound I-70, 1-(2,6-Dioxopiperidin-3-yl)-N,3-dimethyl-2-oxo-2,3-dihydro-1H-benzo[d]imidazole-5-carboxamide] | 1000 to 10000 | –
Cc1ccc2c(c1)n(C)c(=O)n2C1CCC(=O)NC1=O (centres unmarked) [Compound I-63, 3-(3,5-dimethyl-2-oxo-2,3-dihydro-1H-benzo[d]imidazol-1-yl)piperidine-2,6-dione] | < 1000 | –
Cn1c(=O)n(C2CCC(=O)NC2=O)c2ccc(-c3cn(CCOCCOCCOCCNC(=O)OC(C)(C)C)nn3)cc21 (centres unmarked) [Compound I-82, tert-butyl (2-(2-(2-(2-(4-(1-(2,6-dioxopiperidin-3-yl)-3-methyl-2-oxo-2,3-dihydro-1H-benzo[d]imidazol-5-yl)-1H-1,2,3-triazol-1-yl)ethoxy)ethoxy)ethoxy)ethyl)carbamate] | < 1000 | –
Cn1c(=O)n(C2CCC(=O)NC2=O)c2ccc(N)cc21 (centres unmarked) [Compound I-65, 3-(5-Amino-3-methyl-2-oxo-2,3-dihydro-1H-1,3-benzodiazol-1-yl)piperidine-2,6-dione Hydrochloride] | < 1000 | –
Cc1cc(-c2ccc3c(c2)n(C)c(=O)n3C2CCC(=O)NC2=O)n[nH]1 (centres unmarked) [Compound I-79, 3-(3-methyl-5-(3-methyl-1H-pyrazol-5-yl)-2-oxo-2,3-dihydro-1H-benzo[d]imidazol-1-yl)piperidine-2,6-dione] | < 1000 | –
Cn1c(=O)n(C2CCC(=O)NC2=O)c2cccc(N)c21 (centres unmarked) [Compound I-81, 3-(4-amino-3-methyl-2-oxo-2,3-dihydro-1H-benzo[d]imidazol-1-yl)piperidine-2,6-dione] | < 1000 | –
O=C1CC[C@H](N2C[C@H](c3ccc(Br)cc3)OC2=O)C(=O)N1 [Compound I-73, (S)-3-((S)-5-(4-bromophenyl)-2-oxooxazolidin-3-yl)piperidine-2,6-dione] | 10000 to 100000 | –
Cc1nc(-c2ccc3c(c2)n(C)c(=O)n3C2CCC(=O)NC2=O)c[nH]1 (centres unmarked) [Compound I-80, 3-(3-methyl-5-(2-methyl-1H-imidazol-5-yl)-2-oxo-2,3-dihydro-1H-benzo[d]imidazol-1-yl)piperidine-2,6-dione] | < 1000 | –
Cn1c(=O)n(C2CCC(=O)NC2=O)c2cccc(C#N)c21 (centres unmarked) [Compound I-78] | < 1000 | –

Next, values leading:

IC50 [1] [nM] | IC50 [2] [nM] | SMILES
< 1000 | – | CCNC(=O)NCc1ccc2c(c1)n(C)c(=O)n2C1CCC(=O)NC1=O (centres unmarked) [Compound I-71, 1-((1-(2,6-dioxopiperidin-3-yl)-3-methyl-2-oxo-2,3-dihydro-1H-benzo[d]imidazol-5-yl)methyl)-3-ethylurea]
< 1000 | – | CNc1ccc2c(c1)n(C)c(=O)n2C1CCC(=O)NC1=O (centres unmarked) [Compound I-68, 3-(3-methyl-5-(methylamino)-2-oxo-2,3-dihydro-1H-benzo[d]imidazol-1-yl)piperidine-2,6-dione]
< 1000 | – | CCNC(=O)Nc1ccc2c(c1)n(C)c(=O)n2C1CCC(=O)NC1=O (centres unmarked) [Compound I-67, 1-(1-(2,6-dioxopiperidin-3-yl)-3-methyl-2-oxo-2,3-dihydro-1H-benzo[d]imidazol-5-yl)-3-ethylurea]
< 1000 | – | CC(C)(C)OC(=O)NCCOCCOCCOCCOCC#Cc1ccc([C@H]2CN([C@H]3CCC(=O)NC3=O)C(=O)O2)cc1 [Compound I-77, tert-butyl (15-(4-((S)-3-((S)-2,6-dioxopiperidin-3-yl)-2-oxooxazolidin-5-yl)phenyl)-3,6,9,12-tetraoxapentadec-14-yn-1-yl)carbamate]
1000 to 10000 | – | CN(C)Cc1ccc2c(c1)n(C)c(=O)n2C1CCC(=O)NC1=O (centres unmarked) [Compound I-61, 3-(5-((dimethylamino)methyl)-3-methyl-2-oxo-2,3-dihydro-1H-benzo[d]imidazol-1-yl)piperidine-2,6-dione]
< 1000 | – | Cn1c(=O)n(C2CCC(=O)NC2=O)c2cccc([N+](=O)[O-])c21 (centres unmarked) [Compound I-75, 3-(3-methyl-4-nitro-2-oxo-2,3-dihydro-1H-1,3-benzodiazol-1-yl)piperidine-2,6-dione]
< 1000 | – | CCOC(=O)NCc1ccc2c(c1)n(C)c(=O)n2C1CCC(=O)NC1=O (centres unmarked) [Compound I-76, ethyl ((1-(2,6-dioxopiperidin-3-yl)-3-methyl-2-oxo-2,3-dihydro-1H-benzo[d]imidazol-5-yl)methyl)carbamate]
< 1000 | – | O=C1CC[C@@H](N2C[C@H](c3ccc(Br)cc3)OC2=O)C(=O)N1 [Compound I-72, (R)-3-((S)-5-(4-bromophenyl)-2-oxooxazolidin-3-yl)piperidine-2,6-dione]
< 1000 | – | Cn1c(=O)n(C2CCC(=O)NC2=O)c2ccc(CN)cc21 (centres unmarked) [Compound I-64, 3-(5-(Aminomethyl)-3-methyl-2-oxo-2,3-dihydro-1H-benzo[d]imidazol-1-yl)piperidine-2,6-dione]
< 1000 | – | CC(C)(C)OC(=O)NCCOCCOCCOCCOCCCc1ccc([C@H]2CN(C3CCC(=O)NC3=O)C(=O)O2)cc1 (stereo partly drawn) [Compound I-83, tert-butyl (15-(4-((5S)-3-(2,6-dioxopiperidin-3-yl)-2-oxooxazolidin-5-yl)phenyl)-3,6,9,12-tetraoxapentadecyl)carbamate]
< 1000 | – | CN(C)c1ccc2c(c1)n(C)c(=O)n2C1CCC(=O)NC1=O (centres unmarked) [Compound I-69, 3-(5-(dimethylamino)-3-methyl-2-oxo-2,3-dihydro-1H-benzo[d]imidazol-1-yl)piperidine-2,6-dione]
> 100000 | – | Cn1c(=O)n(C2CCC(=O)NC2=O)c2ccc(C(N)=O)cc21 (centres unmarked) [Compound I-90, 1-(2,6-dioxopiperidin-3-yl)-3-methyl-2-oxo-2,3-dihydro-1H-benzo[d]imidazole-5-carboxamide]
10000 to 100000 | > 100000 | O=C1CCC(N2C(=O)Cc3ccccc32)C(=O)N1 (centres unmarked) [Compound I-3, 3-(2-Oxo-2,3-dihydro-1H-indol-1-yl)piperidine-2,6-dione]
< 1000 | – | O=C1CCC(N2C[C@H](c3cccc(Br)c3)OC2=O)C(=O)N1 (single isomer, unassigned) [Compound I-84, (R)-3-((S)-5-(3-bromophenyl)-2-oxooxazolidin-3-yl)piperidine-2,6-dione or (S)-3-((S)-5-(3-bromophenyl)-2-oxooxazolidin-3-yl)piperidine-2,6-dione]
< 1000 | – | Cn1c(=O)n(C2CCC(=O)NC2=O)c2cccc(C#CCOCCOCCNC(=O)OC(C)(C)C)c21 (centres unmarked) [Compound I-86, tert-butyl (2-(2-((3-(1-(2,6-dioxopiperidin-3-yl)-3-methyl-2-oxo-2,3-dihydro-1H-benzo[d]imidazol-4-yl)prop-2-yn-1-yl)oxy)ethoxy)ethyl)carbamate]
< 1000 | – | Cn1c(=O)n(C2CCC(=O)NC2=O)c2ccc(CNC(N)=O)cc21 (centres unmarked) [Compound I-74, 1-((1-(2,6-dioxopiperidin-3-yl)-3-methyl-2-oxo-2,3-dihydro-1H-benzo[d]imidazol-5-yl)methyl)urea]
